# Test results published in patent publication US20140366441A1, “VEGETATIVE PROPAGATION OF SOYBEAN PLANTS IN A HYDROPONIC ENVIRONMENT” (Bayer Cropscience LP, priority 2012, published 2014).
# What was measured:
# Soybean shoot cuttings = assay: Root development of soybean shoot cuttings in tissue culture boxes with fertilizer solution and NAA; format: in vivo; settings: higher NAA concentrations (10^-8 M, 10^-7 M, 10^-6 M tested); nine days; FIG. 3
# Protocol: Three NAA concentrations at 10^-8 M, 10^-7 M and 10^-6 M with 5 cm, 10 cm and 15 cm long shoots were tested in replicate. Soybean shoot cuttings were taken from plants recovered from tissue culture. Tissue culture boxes (Vitro […]) were used to hold the solutions, and the lids with a 2.5 cm hole in the middle were used to hold the shoots with the help of a cylindrical sponge. NAA solution was obtained from PhytoTechnology Laboratories. Fertilizer was applied from the stock A, B, and C solutions described in Example 1. Three separate 5-liter fertilizer solutions were made by mixing 10 ml each of fertilizer stock solution A, B and C in 4970 ml of tap water. NAA stock solution was added to achieve a final concentration of 10^-8 M, 10^-7 M and 10^-6 M solution, respectively. Soybean shoot cuttings were inserted into the sponge roll, and placed through the lid of the tissue culture box. The shoots in the solutions were placed in a greenhouse with 20 hour light cycles at 27° C. and 4 hour night cycles at 21° C. Data was collected nine days after the shoots were placed in the boxes.
# Soybean shoots = assay: Root development of soybean shoot cuttings in 50 ml tubes with water or fertilizer solution ± NAA; format: in vivo; settings: NAA at 10^-8 M and 10^-7 M; day 12; FIG. 1B
# Protocol: Soybean shoots 10 to 15 cm long were cut from 2 similar plants and placed in 50 ml plastic tubes. One shoot was placed in each tube. The tubes contain 50 ml solutions according to the following design: The base solution was either water or a 1:200 dilution of fertilizer stock solution A, B and C. Stock A contains 958.6 grams of 21-5-20 All Purpose from Jack's Professional, 133.8 grams of 15-0-15 Dark Weather (Jack's Professional) and 60.0 grams of 10-0-0 Magnitrate Special (Peter's Excel) in 2 liter of water. Stock B contains 239.6 grams of 15-5-25 Poinsettia Peat-Lite Special (Jack's Professional) in 2 liters of water. Stock C contains 60.0 grams of Epsom salt (magnesium sulfate) in 1.0 liter of water. NAA (1-Naphthaleneacetic acid, Sigma-Aldrich) was added to either water or fertilizer solutions to concentrations of 0, 10^-9 M, 10^-8 M and 10^-7 M. There were 2 fertilizer (with or without) treatments×4 NAA treatments, totaling 8 treatments. The experiment was repeated 3 times, making a total of 24 tubes. The shoots in the solutions were placed in a greenhouse with 20 hour light cycles at 28° C. and 4 hour night cycles at 22° C.
structure (smiles),measurement,setting,value
"O=C(O)Cc1cccc2ccccc12 [NAA, 1-Naphthaleneacetic acid]",effect of NAA on root length,Soybean shoot cuttings,kept the roots shorter
same,effect of NAA on root number,Soybean shoot cuttings,stimulated more roots from a shoot
same,effect of NAA on root growth (root length),Soybean shoots,positive effects on root growth
